In ChEMBL document CHEMBL4507268 (2021):

What was measured:
Settings in all cases: Compound concentration 1.0 uM
[1] = target: Mitogen-activated protein kinase 10 (Homo sapiens) (UniProt P53779)
[2] = target: T1, cGMP-dependent protein kinase 1 (Homo sapiens) (UniProt Q13976)
T1 sequence (whole entry): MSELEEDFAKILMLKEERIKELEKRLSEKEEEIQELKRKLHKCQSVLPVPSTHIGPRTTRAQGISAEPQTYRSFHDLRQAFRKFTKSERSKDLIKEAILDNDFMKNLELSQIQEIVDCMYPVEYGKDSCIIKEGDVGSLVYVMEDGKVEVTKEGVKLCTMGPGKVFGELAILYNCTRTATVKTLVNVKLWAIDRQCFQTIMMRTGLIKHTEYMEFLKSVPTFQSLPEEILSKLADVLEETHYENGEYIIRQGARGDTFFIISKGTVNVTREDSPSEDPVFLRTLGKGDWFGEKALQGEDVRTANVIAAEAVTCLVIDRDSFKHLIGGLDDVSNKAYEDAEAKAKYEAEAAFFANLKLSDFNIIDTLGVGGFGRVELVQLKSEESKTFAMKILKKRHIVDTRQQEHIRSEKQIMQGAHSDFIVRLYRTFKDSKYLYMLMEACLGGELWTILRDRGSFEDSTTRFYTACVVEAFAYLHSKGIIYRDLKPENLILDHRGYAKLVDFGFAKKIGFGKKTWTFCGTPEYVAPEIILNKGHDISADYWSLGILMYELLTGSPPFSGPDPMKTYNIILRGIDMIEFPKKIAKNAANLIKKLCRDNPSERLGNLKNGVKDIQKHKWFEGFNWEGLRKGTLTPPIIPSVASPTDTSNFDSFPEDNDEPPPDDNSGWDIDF

[3] = target: Serine/threonine-protein kinase 33 (Homo sapiens) (UniProt Q9BYT3)
[4] = target: Protein-tyrosine kinase 2-beta (Homo sapiens) (UniProt Q14289)
[5] = target: T2, SNF-related serine/threonine-protein kinase (Homo sapiens) (UniProt Q9NRH2)
T2 sequence (whole entry): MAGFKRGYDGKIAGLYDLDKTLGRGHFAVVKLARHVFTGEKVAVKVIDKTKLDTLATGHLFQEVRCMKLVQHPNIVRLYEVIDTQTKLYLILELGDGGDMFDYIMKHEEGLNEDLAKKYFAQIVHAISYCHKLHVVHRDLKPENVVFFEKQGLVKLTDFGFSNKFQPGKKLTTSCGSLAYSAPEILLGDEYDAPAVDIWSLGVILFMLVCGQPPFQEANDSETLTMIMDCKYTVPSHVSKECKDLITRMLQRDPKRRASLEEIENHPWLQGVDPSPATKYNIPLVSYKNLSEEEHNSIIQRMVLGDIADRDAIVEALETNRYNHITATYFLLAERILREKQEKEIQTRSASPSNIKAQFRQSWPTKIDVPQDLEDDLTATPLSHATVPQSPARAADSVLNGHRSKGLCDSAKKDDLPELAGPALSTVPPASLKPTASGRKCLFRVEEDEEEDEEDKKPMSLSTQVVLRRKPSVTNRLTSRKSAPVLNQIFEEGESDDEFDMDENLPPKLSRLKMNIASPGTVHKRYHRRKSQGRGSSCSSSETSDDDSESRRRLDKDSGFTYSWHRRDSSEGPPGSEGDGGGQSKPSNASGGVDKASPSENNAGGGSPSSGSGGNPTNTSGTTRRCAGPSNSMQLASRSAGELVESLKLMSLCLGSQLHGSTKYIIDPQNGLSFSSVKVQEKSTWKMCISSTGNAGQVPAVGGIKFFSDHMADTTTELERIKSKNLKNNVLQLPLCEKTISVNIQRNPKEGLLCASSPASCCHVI

[6] = target: T3, Ephrin type-B receptor 2 (Homo sapiens) (UniProt P29323)
T3 sequence (whole entry): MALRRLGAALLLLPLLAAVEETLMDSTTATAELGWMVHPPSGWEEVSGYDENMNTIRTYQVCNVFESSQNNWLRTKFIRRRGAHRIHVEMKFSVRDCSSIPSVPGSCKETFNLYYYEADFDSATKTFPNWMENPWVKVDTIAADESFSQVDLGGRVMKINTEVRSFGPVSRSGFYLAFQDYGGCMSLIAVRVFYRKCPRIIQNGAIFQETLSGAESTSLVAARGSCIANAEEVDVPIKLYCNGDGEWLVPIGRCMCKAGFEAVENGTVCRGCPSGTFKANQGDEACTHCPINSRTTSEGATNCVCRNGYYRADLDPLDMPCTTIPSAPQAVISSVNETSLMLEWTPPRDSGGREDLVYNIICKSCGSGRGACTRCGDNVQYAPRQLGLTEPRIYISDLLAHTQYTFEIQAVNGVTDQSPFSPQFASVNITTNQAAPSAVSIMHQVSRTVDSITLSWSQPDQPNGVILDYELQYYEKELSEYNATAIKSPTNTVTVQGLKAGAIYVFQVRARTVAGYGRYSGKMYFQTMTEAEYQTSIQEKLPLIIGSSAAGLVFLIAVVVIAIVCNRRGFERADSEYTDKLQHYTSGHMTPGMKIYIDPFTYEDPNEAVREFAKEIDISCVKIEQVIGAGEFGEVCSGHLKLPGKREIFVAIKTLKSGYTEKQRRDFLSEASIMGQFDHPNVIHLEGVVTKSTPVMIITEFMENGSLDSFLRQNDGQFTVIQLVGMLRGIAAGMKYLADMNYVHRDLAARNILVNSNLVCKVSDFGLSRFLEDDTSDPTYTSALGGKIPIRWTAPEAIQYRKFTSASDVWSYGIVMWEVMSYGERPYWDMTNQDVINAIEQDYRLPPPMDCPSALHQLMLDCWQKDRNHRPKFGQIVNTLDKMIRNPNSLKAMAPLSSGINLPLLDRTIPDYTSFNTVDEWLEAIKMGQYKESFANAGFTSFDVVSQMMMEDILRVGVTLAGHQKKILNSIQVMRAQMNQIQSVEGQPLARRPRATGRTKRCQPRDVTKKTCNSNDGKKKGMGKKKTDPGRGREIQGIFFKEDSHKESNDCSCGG

[7] = target: Phosphatidylinositol 5-phosphate 4-kinase type-2 alpha (Homo sapiens) (UniProt P48426)
[8] = target: DNA-dependent protein kinase catalytic subunit (Homo sapiens) (UniProt P78527)

Measured: % residual kinase activity

Sequence of DNA-dependent protein kinase catalytic subunit (Homo sapiens) (P78527 whole entry): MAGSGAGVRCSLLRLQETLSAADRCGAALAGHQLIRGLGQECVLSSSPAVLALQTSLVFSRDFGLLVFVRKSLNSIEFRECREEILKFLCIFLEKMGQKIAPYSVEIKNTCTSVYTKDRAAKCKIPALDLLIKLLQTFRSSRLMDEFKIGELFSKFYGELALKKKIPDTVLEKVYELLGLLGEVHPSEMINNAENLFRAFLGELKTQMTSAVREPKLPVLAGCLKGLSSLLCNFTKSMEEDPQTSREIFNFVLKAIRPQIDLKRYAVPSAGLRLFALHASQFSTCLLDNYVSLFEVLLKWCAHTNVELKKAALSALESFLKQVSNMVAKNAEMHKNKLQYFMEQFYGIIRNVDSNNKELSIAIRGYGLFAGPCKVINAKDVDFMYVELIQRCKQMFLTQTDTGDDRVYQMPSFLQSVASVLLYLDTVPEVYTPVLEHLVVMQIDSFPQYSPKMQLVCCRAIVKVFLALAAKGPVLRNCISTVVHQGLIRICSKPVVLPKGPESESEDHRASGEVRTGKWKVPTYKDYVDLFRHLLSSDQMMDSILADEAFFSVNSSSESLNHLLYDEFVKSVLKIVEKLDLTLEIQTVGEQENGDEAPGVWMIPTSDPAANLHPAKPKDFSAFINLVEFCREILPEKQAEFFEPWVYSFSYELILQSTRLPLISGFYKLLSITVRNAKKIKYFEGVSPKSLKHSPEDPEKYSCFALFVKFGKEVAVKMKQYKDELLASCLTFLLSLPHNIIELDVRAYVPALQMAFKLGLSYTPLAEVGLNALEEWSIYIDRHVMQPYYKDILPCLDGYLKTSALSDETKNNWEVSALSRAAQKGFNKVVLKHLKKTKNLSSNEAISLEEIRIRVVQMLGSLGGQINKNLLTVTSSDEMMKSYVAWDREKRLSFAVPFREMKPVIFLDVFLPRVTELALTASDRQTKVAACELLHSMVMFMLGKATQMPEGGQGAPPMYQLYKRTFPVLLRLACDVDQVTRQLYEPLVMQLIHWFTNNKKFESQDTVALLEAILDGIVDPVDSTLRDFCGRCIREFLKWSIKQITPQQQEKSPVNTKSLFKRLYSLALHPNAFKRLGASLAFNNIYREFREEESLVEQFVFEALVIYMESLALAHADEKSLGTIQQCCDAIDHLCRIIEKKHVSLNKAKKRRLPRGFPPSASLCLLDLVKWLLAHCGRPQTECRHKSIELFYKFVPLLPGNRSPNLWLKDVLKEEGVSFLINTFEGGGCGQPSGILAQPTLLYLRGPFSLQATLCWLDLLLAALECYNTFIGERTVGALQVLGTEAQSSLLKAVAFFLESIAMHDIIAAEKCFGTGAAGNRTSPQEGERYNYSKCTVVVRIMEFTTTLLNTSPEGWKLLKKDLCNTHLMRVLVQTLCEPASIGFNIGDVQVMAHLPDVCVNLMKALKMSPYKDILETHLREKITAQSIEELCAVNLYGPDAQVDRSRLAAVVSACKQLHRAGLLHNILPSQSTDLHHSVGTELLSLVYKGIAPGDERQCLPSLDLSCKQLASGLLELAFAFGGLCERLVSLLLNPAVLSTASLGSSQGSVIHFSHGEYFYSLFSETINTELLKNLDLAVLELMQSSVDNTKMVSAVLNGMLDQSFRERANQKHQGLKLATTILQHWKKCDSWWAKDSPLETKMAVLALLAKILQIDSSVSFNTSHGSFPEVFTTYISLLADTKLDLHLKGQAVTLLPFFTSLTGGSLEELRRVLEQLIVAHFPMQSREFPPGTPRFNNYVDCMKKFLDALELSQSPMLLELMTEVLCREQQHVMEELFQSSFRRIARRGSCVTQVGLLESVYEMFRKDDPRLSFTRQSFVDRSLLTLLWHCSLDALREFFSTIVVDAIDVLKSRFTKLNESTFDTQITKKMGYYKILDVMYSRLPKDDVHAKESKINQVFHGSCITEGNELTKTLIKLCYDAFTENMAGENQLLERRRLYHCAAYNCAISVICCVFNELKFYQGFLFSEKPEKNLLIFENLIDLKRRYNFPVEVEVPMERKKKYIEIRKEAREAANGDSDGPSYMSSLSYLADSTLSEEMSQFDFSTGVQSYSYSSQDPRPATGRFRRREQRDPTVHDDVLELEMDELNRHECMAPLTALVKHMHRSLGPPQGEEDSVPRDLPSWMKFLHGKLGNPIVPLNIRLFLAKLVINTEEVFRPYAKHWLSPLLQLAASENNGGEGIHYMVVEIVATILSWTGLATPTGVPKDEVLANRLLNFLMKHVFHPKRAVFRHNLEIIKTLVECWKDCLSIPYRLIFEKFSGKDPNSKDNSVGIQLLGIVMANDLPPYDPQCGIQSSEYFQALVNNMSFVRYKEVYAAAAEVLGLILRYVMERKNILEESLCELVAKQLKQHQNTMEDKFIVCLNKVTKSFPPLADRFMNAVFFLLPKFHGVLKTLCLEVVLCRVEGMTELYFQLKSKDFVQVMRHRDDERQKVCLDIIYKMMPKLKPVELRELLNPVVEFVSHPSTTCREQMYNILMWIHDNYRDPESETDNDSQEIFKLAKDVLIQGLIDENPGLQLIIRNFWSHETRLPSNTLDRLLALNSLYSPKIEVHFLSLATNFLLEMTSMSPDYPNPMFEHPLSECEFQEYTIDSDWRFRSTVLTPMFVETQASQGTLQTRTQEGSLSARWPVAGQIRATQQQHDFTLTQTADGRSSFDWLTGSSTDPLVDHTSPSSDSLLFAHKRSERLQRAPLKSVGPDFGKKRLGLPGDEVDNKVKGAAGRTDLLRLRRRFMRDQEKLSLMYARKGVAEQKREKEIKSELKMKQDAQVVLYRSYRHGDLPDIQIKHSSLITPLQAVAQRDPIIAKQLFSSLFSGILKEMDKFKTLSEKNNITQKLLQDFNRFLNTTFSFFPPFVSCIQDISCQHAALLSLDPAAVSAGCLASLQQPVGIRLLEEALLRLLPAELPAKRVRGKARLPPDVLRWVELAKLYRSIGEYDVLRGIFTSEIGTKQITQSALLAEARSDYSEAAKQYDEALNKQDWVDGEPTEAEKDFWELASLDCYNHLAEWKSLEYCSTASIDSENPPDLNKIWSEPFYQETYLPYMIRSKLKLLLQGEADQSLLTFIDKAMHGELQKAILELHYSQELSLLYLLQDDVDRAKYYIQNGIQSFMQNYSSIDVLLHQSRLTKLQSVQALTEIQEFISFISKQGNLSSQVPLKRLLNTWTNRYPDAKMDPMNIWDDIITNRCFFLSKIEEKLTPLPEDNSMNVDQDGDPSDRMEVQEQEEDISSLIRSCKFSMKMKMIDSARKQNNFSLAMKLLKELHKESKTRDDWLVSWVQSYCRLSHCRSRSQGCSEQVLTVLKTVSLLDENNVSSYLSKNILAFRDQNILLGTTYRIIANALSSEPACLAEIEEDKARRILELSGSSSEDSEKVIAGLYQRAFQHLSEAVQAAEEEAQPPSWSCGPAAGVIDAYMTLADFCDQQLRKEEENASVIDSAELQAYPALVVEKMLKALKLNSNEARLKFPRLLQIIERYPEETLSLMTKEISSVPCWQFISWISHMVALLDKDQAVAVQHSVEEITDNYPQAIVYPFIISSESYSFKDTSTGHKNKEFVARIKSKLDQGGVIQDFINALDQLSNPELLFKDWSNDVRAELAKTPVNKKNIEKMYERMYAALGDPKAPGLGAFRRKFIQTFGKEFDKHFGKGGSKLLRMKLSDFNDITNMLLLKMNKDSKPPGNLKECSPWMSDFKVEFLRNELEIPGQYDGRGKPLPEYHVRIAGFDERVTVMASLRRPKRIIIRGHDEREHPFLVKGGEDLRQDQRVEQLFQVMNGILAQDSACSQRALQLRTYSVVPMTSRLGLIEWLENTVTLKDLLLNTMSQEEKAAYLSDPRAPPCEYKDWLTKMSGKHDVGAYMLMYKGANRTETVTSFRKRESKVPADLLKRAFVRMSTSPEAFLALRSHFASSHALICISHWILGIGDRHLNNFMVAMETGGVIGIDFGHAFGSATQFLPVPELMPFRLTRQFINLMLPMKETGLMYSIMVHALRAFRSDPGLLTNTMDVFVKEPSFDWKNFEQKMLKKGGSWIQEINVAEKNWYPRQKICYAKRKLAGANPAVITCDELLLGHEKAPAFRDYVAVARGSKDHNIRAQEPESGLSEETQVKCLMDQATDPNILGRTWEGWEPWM
Sequence of Mitogen-activated protein kinase 10 (Homo sapiens) (P53779 whole entry): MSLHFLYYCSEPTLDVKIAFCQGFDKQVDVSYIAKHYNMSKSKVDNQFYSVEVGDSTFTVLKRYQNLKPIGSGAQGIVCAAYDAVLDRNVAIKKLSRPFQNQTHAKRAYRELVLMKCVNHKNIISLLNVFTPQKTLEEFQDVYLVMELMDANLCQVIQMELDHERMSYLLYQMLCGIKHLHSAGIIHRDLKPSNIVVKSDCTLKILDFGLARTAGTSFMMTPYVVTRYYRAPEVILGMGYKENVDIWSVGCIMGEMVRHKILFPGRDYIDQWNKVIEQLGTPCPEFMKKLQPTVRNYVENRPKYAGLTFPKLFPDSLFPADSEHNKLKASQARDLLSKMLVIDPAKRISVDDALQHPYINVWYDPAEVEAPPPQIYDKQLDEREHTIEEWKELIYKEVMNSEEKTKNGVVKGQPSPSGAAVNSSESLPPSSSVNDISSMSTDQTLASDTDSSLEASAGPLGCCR
Sequence of Phosphatidylinositol 5-phosphate 4-kinase type-2 alpha (Homo sapiens) (P48426 whole entry): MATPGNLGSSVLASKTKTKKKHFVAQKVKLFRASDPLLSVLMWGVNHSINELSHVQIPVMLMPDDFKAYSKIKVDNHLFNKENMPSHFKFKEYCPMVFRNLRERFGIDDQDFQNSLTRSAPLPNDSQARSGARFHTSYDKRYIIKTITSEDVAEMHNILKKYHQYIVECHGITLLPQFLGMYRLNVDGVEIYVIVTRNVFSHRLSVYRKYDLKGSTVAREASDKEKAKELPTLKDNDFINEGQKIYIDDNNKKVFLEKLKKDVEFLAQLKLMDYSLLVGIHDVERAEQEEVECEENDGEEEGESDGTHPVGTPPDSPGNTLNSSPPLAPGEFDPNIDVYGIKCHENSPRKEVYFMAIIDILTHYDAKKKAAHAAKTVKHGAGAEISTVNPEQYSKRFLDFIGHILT

CN1CCN(c2cnc3c(C4CCN(C(=O)c5ccc(OC(F)(F)F)cc5N)CC4)ncnc3c2)CC1 [BAY-885]
inactive: [1] 111% | [2] 115% | [3] 103% | [4] 103% | [5] 118% | [6] 93% | [7] 95% | [8] 102%
